# Patent publication EP0746567B1, “NOVEL OPIOID PEPTIDES FOR THE TREATMENT OF PAIN AND USE THEREOF” (AstraZeneca AB, priority 1994, dated 2002)
# Non-standard residues stand in square brackets, D forms with d. Residues, ends and D or L forms follow the SMILES beside them.
# System: hot plate response
# Experiment: Hot plate test (central analgesia)
# Type: in vivo
# Details: mouse hot plate test, even at doses of 100mg/kg
# Text: It was thought that non-polar peptides pass more easily into the central nervous system than polar peptides by traversing the blood-brain barrier. […] This test is standard and known to persons skilled in the art. The test detects chemicals that exert a centrally mediated analgesic response.
# The term "ED50" as shown in table 1 for the PBQ writhing assays is defined as the dose of drug which induces a 50% reduction in the number of writhes observed compared to the control.
# PBQ (phenylbenzoquinone) induced writhing in mice is an assessment of both central and peripheral analgesia. For experimental protocol see Sigmund et al., Proc. Soc. Exp. Biol. Med., 95, p. 729 (1957). Central analgesia was determined by the inhibition of a hot plate response in mice. For experimental protocol see G. Woolfe and A. Macdonald, J. Pharmacol. Exp. Ther., 80, p.300 (1944). Assays measuring opioid receptor binding affinities for µ and δ receptors as well as GPI and MVD assays were determined through experimental protocol set out in Schiller et al., Biophys. Res. Commun., 85, p.1322 (1975). […]
# The mice were individually evaluated for reaction time on the hot plate. […]
# For each time reading, the average reaction time of the control group was multiplied by 1.5. […] The number of analgesic mice in a group determined the analgesic percentage of the compound for this reading.
smiles,measurement,value
"C[C@@H](NC(=O)[C@@H](N)Cc1ccc(O)cc1)C(=O)N[C@@H](Cc1ccccc1)C(=O)N[C@@H](Cc1ccccc1)C(N)=O [TAPP, H-Tyr-D-Ala-Phe-Phe-NH2] (H-Y[dA]FF-NH2)",analgesic effect,lack of analgesic effect
